Assay results published in patent publication US10137185B2, “PAP peptide analogues” (THE NOTTINGHAM TRENT UNIVERSITY, priority 2014, dated 2018).

Tests used:
[1] = system: HLA-A2; conditions: WO 2005/090560; cited from earlier work
[2] = system: splenocytes; experiment: Peptide immunisation of HHDII/DRI mice, ex vivo IFNγ ELISPOT of splenocytes; assay type: in vivo
Experimental: FIG. 11. Comparison of IFNγ responses generated by splenocytes isolated from HHDII/DRI mice that have been immunised with PAP-114-128 peptide and PAP-114-128 analogue peptide, as determined using an ex vivo ELISPOT. HHDII/DRI mice were immunised with 100 μg of PAP-114-128 on day 1 and 75 μg of PAP-115-123 on day 14, or 100 μg of PAP-114-128 analogue peptide on day 1 and 75 μg of PAP-115-123 on day 14. Splenocytes were isolated for the ex vivo ELISPOT assay a week after the final immunisation. For the assay, 1×10^6 splenocytes were co-cultured with 1 μg of class I PAP-115-123 peptide or PAP-115-123 analogue peptide or 10 μg of class II PAP-114-128 peptide or PAP-114-128 analogue peptide. Splenocytes with no added peptide were used as control. Comparisons of means (±SEM) between groups (splenocytes pulsed with class I/class II peptide or class I/class II analogue peptide) are made using an unpaired t test. The experiment was performed with three mice per group.
The immunogenic efficiencies of the PAP-115-123 epitope peptide and the PAP-115-123 analogue peptides were further compared using transgenic HHDII/DRI mice. For this, HHDII/DRI mice in the PAP-114-128 peptide immunisation group were immunised with 100 μg of PAP-114-128 on day 1 and 75 μg of PAP-115-123 on day 14. HHDII/DRI mice in the PAP-114-128 analogue peptide immunisation group was immunised with 100 μg of PAP-114-128 analogue peptide on day 1 and 75 μg of PAP-115-123 on day 14. A week after the final immunisation spleens were isolated for the ex vivo ELISPOT assay. For the assay, 1×10^6 splenocytes were co-cultured with 1 μg of class I PAP-115-123 peptide or PAP-115-123 analogue peptide or 10 μg of class II PAP-114-128 peptide or PAP-114-128 analogue peptide. Splenocytes with no added peptide were used as control. […] The experiment was performed with three mice per group.

[3] = system: splenocytes; experiment: Peptide immunisation of C57Bl/6 mice, ex vivo IFNγ ELISPOT of splenocytes; assay type: in vivo; conditions: for number of spots generated by splenocytes from immunised animals: 100 μg 15-mer day 1, PAP-115-123 day 14, 1×10^6 splenocytes with 1 μg 9-mer peptide, 3 mice
Experimental: FIG. 9. Comparison of IFNγ responses induced by PAP-115-123 peptide and PAP-115-123 analogue peptide immunisation (A) and to varying PAP-115-123 peptide/analogue peptide concentrations (B), as determined using an ex vivo ELISPOT. C57Bl/6 mice in the PAP-115-123 peptide immunisation group were immunised with 100 μg of PAP-114-128 on day 1 and 75 μg of PAP-115-123 on day 14. C57Bl/6 mice in the PAP-115-123 analogue peptide immunisation group were immunised with 100 μg of PAP-114-128 analogue peptide on day 1 and 75 μg of PAP-115-123 on day 14. A week after the final immunisation, spleens were isolated for the ex vivo ELISPOT assay. For the assay, 1×10^6 splenocytes were co-cultured with 1 μg of PAP-115-123 peptide or PAP-115-123 analogue peptide. Splenocytes with no added peptide were used as control. Comparisons of means (±SEM) between groups (splenocytes pulsed with PAP-115-123 peptide or PAP-115-123 analogue peptide) are made with an unpaired t test. The experiment was performed with three mice per group.
The PAP-115-123 peptide which was obtained by altering the second amino acid of the sequence from alanine to […] was predicted to have a higher HLA-2 binding score by the syfpeithi database. The binding score of PAP-115-123 epitope (SAMTNLAAL) (SEQ ID NO. 13) to HLA-A2.1 was 24 and that of the analogue peptide (SLMTNLAAL) (SEQ ID NO. 8) was 30. The immunogenicity of PAP-115-123 epitope and its analogue epitope was assessed by immunising syngeneic C57Bl/6 mice with these peptides. C57Bl/6 mice were immunised with 100 μg of PAP-114-128 on day 1 and […] of PAP-115-123 on day 14 or 100 μg of PAP-114-128 analogue peptide on day 1 and […] of PAP-115-123 on day 14. A week after the final immunisation spleens were isolated for the ex vivo ELISPOT assay. For this, 1×10^6 splenocytes were co-cultured with 1 μg of PAP-115-123 peptide or PAP-115-123 analogue peptide. Splenocytes with no added peptide were used as control. A 2-fold higher IFNγ response by splenocytes from animals immunised with the PAP-114-128 analogue peptide was observed (FIG. 9A). The number of spots in generated by splenocytes from PAP-114-128 immunised animals was 280, whereas the number of spots generated by splenocytes from PAP-114-128 analogue immunised animals was 590. Comparisons of means (±SEM) between groups (splenocytes pulsed with PAP-114-128 peptide or PAP-114-128 analogue peptide) were performed using the unpaired t test, and there were 3 animals in each group. Peptide-specific IFNγ responses generated by splenocytes that had been pulsed with varying concentrations (10, 1, 0.1, 0.01, 0.001 and 0.0001 mg/ml) of PAP-15-123 epitope or analogue epitope were also evaluated.

[4] = system: TRAMP-C1 cells; experiment: Ex vivo IFNγ ELISPOT of splenocytes of immunised mice co-cultured with TRAMP-C1 or MC38 cells; assay type: in vivo, C57Bl/6 mice
Experimental: FIG. 10. Comparison of IFNγ responses generated by splenocytes from mice that have been immunised with PAP-115-123 analogue peptide, and which have been co-cultured with TRAMP-C1 cells and MC38 cells, as determined using an ex vivo ELISPOT. C57Bl/6 mice were immunised with 100 μg of PAP-114-128 analogue peptide on day 1 and 75 μg of PAP-115-123 on day 14. Splenocytes were isolated for the ex vivo ELISPOT assay a week after the final immunisation. For the assay, 1×10^6 splenocytes were co-cultured with 1×10^5 TRAMP-C1 ‘stimulator’ cells. Control wells received 1×10^5 MC38 cells as stimulator cells. Comparisons of means (±SEM) between groups (splenocytes pulsed with TRAMP-C1 or MC38) are made using an unpaired t test. The experiment was performed with three mice per group.
To assess whether the T cells generated following PAP-114-128 analogue peptide immunisation could recognise naturally processed PAP-115-123 epitopes, the IFNγ response of splenocytes from the immunised mice that had been co-cultured with TRAMP-C1 cells (that naturally express PAP) was assessed using the ELISPOT. For this, 1×10^6 splenocytes were co-cultured with 1×10^5 TRAMP-C1 cells as stimulator cells. […] The number of spots generated by co-culture splenocytes with TRAMP-C1 cells was 650, whereas and number of spots obtained when using MC38 cells as stimulators was 100. The experiment was performed with three mice per group.

[5] = system: PBMCs from HLA-A2 positive patients with prostate cancer and individuals with benign disease; experiment: IFNγ ELISPOT of PBMCs from prostate cancer patients and individuals with benign disease after peptide re-stimulation; assay type: cell-based, human; conditions: for peptide-specific IFNγ response in samples from individuals with benign disease: 10 benign individuals
Experimental: FIG. 3. IFNγ response of peripheral blood mononuclear cells (PBMCs) isolated from patients with prostate cancer and individuals with benign disease after re-stimulation with PAP-115-123 epitope using an ELISPOT assay. Cryopreserved PBMCs from ten HLA-A2 positive prostate cancer patients and ten benign candidates were compared. The PBMCs were cultured in vitro with 5 μg of PAP-114-128 epitope for 7 days. The cells were then washed and rested overnight and 4×10^4 cells were added to each well of an ELISPOT plate. PAP-115-123 epitope peptide (1 μg) was added per well and cells cultured for 48 hours. The plates were then washed according to the manufacturer's protocol. PBMCs with no added peptide were used as control. Comparisons of means (±SEM) between groups (cells pulsed with PAP-115-123 or no peptide) are made using an unpaired t test.
FIG. 12. IFNγ responses generated by PBMCs isolated from 10 patients with prostate cancer and 10 individuals with benign disease after re-stimulation with the PAP-115-123 analogue epitope peptide, as determined using an ELISPOT assay. PBMCs were cultured in vitro with 5 μg of PAP-114-128 analogue epitope for 7 days. The cells were then washed and rested overnight, at which time and 4×10^4 cells were added to each well of an ELISPOT plate. PAP-115-123 analogue epitope peptide (1 μg) was added to each well and the cells were cultured for 48 hours. The plates were then washed according to the manufacturer's protocol. PBMCs cultured with no added peptide were used as the control. Comparisons of means (±SEM) between groups (PBMCs pulsed with PAP-115-123 analogue or no peptide) are made using an unpaired t test.
To determine the presence of circulating T cells specific for PAP-115-123 in humans, PBMCs from HLA-A2 positive patients with prostate cancer and individuals with benign disease were used. Cryopreserved PBMCs were thawed, washed and restimulated for 7 days with […] epitope peptide. The cells were then washed and rested overnight, at which time 4×10^4 cells were added to each well of an ELISPOT plate. PAP-115-123 epitope peptide (1 μg) was added to each well and the cells cultured for 48 hours. The plates were developed according to the manufacturer's instructions. PBMCs cultured with no peptide were used as controls. […] The number of IFNγ spots generated by PBMCs from one of the patients was as high as 220 (vs 60 spots for the control). The number of spots generated by PBMCs for the other 6 patients with prostate cancer ranged between 50 and 100 (vs 10-20 in controls). Although some of the PBMCs from individuals with benign disease generated 50-100 spots, the number of spots in the control wells was also high.
To determine the presence of circulating T cells specific for PAP-115-123 analogue peptide in humans, PBMCs from HLA-A2 positive patients with prostate cancer and individuals with benign disease were used. Cryopreserved PBMCs were thawed, washed and restimulated for 7 days with […] analogue epitope. The cells were then washed and rested overnight, at which time 4×10^4 cells were added to each well of an ELISPOT plate. 1 μg of PAP-115-123 analogue epitope was added to each well and cells were cultured for 48 hours. The plates were developed as per the manufacturer's instructions. PBMCs cultured with no peptide were used as control. […] The number of IFNγ spots in one of the patients was as high as 180 spots compared to control (54 spots). Similar response was also obtained when PBMCs were co-cultured with PAP-115-123 epitope (FIG. 3). The number of spots generated by PBMCs from the 6 patients with prostate cancer patients ranged between 50 and 100 (vs 10-20 in control wells). Although some of the samples from individuals with benign disease generated 50-100 spots, the number of spots in the control wells was also high.

For “ILLWQPIPV (PAP with Ala to Leu change at position 115) [PAP 135]”, the “binding to HLA-A2” value [1] is given as “strong binding”.

For “PAP-114-128: immunogenic class II PAP epitope that incorporates class I PAP-115-123 (MSAMTNLAALFPPEG; UniProt P15309 114-128, looked up, fragment)”, the “IFNγ response of splenocytes co-cultured with class II epitope” value ([2]; 10 μg class II peptide) was “No significant IFNγ response” and the “number of spots generated by splenocytes from immunised animals” value [3] was 280 spots.

With “MSLMTNLAALFPPEG (PAP with A-L mutation at position 3 of peptide) [PAP-114-128 analogue peptide]” the “immune response on the basis of the IFNγ response, compared to immunisation with PAP-114-128” value ([2]; discussion) was “significantly more potent”, the “number of spots, MC38 cells as stimulators” value ([4]; 1×10^5 MC38 cells (do not express PAP)) was 100 spots and the “number of spots, splenocytes co-cultured with TRAMP-C1 cells” value ([4]; 1×10^6 splenocytes, 1×10^5 TRAMP-C1 cells (naturally express PAP)) was 650 spots. The “lysis of TRAMP-C1 cells by T cells generated in C57Bl/6 mice” value ([4]; discussion) was “able to lyse TRAMP-C1 cells”, the “IFNγ response with TRAMP-C1 vs MC38 cells” value ([4]; unpaired t-test, p<0.05) was “Significantly higher” and the “number of spots generated by splenocytes from immunised animals” value [3] was 590 spots. For the same substance, the “fold higher IFNγ response vs PAP-114-128 immunisation” value ([3]; C57Bl/6, FIG. 9A) was 2 fold, the “immune response on the basis of the IFNγ response, compared to immunisation with PAP-114-128” value ([3]; C57Bl/6 mice, discussion) was “significantly more potent” and the “IFNγ response of splenocytes pulsed with varying peptide concentrations vs native peptide group” value ([3]; peptide concentrations of 1, 0.1, 0.01 and 0.001 mg/ml, p<0.05, FIG. 9B) was “significantly higher”.

In the case of “SLMTNLAAL (PAP with A-L mutation at position 2 of peptide) [PAP-115-123 analogue peptide, 9-mer PAP analogue with alanine changed to leucine]”, the “number of spots, other 6 patients with prostate cancer” value ([5]; 1 μg peptide, 4×10^4 cells per well, 10-20 in controls) is reported as 50-100 spots, the “number of spots, some PBMCs from individuals with benign disease” value ([5]; 1 μg peptide, spots in control wells also high) is reported as 50-100 spots and the “peptide-specific IFNγ response in samples from individuals with benign disease” value ([5]; 1 μg peptide, listed as PAP115-123 analogue peptide) is reported as “not responsive”. The “peptide-specific IFNγ response in samples from individuals with benign disease” value ([5]; 1 μg peptide, listed as PAP-115-123 analogue) was “no PAP-115-123 analogue specific IFNγ response”, the “responsiveness of PBMCs from patients with prostate cancer” value ([5]; discussion) was “greater” and the “PBMC samples from patients with prostate cancer with peptide-specific IFNγ response” value ([5]; of 10 samples, 7 days re-stimulation with the 15-mer, then 1 μg peptide, 48 hours, vs no peptide) was 7. For the same substance, the “number of IFNγ spots, highest patient” value ([5]; one prostate cancer patient, 1 μg peptide, 4×10^4 cells per well, 48 hours) was 180 spots and the “IFNγ response of splenocytes co-cultured with class I PAP115-123 and PAP-115-123 analogue peptide epitopes” value ([2]; 1 μg class I peptide, vs native peptide group, p<0.05) was “significantly higher”.
